# According to EP4725957A1, “GROUP OF CYCLIC ALKALINE LIPOPEPTIDE COMPOUNDS, AND PREPARATION METHOD THEREFOR AND USE THEREOF” (Institute of Medicinal Biotechnology, Chinese Academy of …, priority 2023, dated 2024):
# Where two headings read alike, the source gives them in different places. Numbered stars: 1 amine (or outer) side, 2 acyl side, 3 side chain; on linkers, the order of the positions; unused ones are H or OH. Bridge positions count the residues as written; N and C are the ends. Square brackets hold non-standard residues; d marks the D form. Peptide text beside a SMILES is read from it. * marks the point of attachment. X3 = O=C([C@@H](Cc1ccc(CS(=O)(=O)O)cc1)N[*:1])[*:2]; Heptanoyl(6-Me) = CC(C)CCCCC(=O)*; Sulfomethyl = O=S(=O)(O)C*; Nonanoyl = CCCCCCCCC(=O)*; X1 = CC[C@H](C)CCCCC(=O)*; dDab = NCC[C@@H](N)C(=O)O; Heptanoyl = CCCCCCC(=O)*; Orn = NCCC[C@H](N)C(=O)O; dDap = NC[C@@H](N)C(=O)O; Dab = NCC[C@H](N)C(=O)O; Dap = NC[C@H](N)C(=O)O
# Tests used:
# Format in all cases: cell-based
# [1] = tested on: Acinetobacter baumannii ABA19-1
# How it was run: (§1)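 In this CLSI-based assay, serially halved compound (final 64–0.03 mg/L) was exposed to (2-4) × 10^5 CFU/mL bacteria in MH broth at 35-37°C for 16-20 h. The readout was the MIC.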
# [2] = tested on: Acinetobacter baumannii NCTC 13304 (OXA-27)
# How it was run: as §1
# [3] = tested on: Escherichia coli ATCC BAA-2340 (KPC)
# How it was run: as §1
# [4] = tested on: Escherichia coli ATCC BAA-2523
# How it was run: as §1
# [5] = tested on: Klebsiella pneumoniae ATCC BAA-1705 (KPC)
# How it was run: as §1
# [6] = tested on: Klebsiella pneumoniae KPN+19-15
# How it was run: as §1
# [7] = tested on: Pseudomonas aeruginosa ATCC 27853
# How it was run: as §1
# [8] = tested on: Pseudomonas aeruginosa PAE19-3
# How it was run: as §1
# [9] = Nephrotoxicity assay: in vitro cytotoxicity of HK-2 cells by CCK-8 assay; conditions: human, HK-2 cells (human renal), 72 h incubation with drug-containing medium
# How it was run: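 Compounds in sterile water, diluted to final 500, 250, 200, 100, 50, 25 and 12.5 µg/mL, were applied for 72 h to human HK-2 kidney cells. Absorbance at 450 nm after 3 h CCK-8 gave viability against untreated wells, and IC50 came from logarithmic regression; three replicates.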
Compound,MIC ([1]; ABA19-1),MIC ([2]; NCTC 13304),MIC ([3]; ATCC BAA-2340),MIC ([4]; ATCC BAA-2523),MIC ([5]; ATCC BAA-1705),MIC ([6]; KPN+19-15),MIC ([7]; ATCC 27853),MIC ([8]; PAE19-3),IC50 at 72 h [9],MIC ([1]; Acinetobacter baumannii ABA19-1),MIC ([2]; Acinetobacter baumannii NCTC 13304 (OXA-27)),MIC ([3]; Escherichia coli ATCC BAA-2340 (KPC)),MIC ([4]; Escherichia coli ATCC BAA-2523),MIC ([5]; Klebsiella pneumoniae ATCC BAA-1705 (KPC)),MIC ([6]; Klebsiella pneumoniae KPN 19-15),MIC ([7]; Pseudomonas aeruginosa ATCC27853),MIC ([8]; Pseudomonas aeruginosa PAE19-3)
"CC[C@H](C)CCCCC(=O)N[C@@H](CCN)C(=O)N[C@H](C(=O)N[C@H](CO)C(=O)N[C@H]1CCNC(=O)[C@H]([C@@H](C)O)NC(=O)[C@H](CCN)NC(=O)[C@H](CN)NC(=O)[C@H]([C@@H](C)O)NC(=O)[C@@H](Cc2ccccc2)NC(=O)[C@H](CCN)NC1=O)[C@@H](C)O [Compound 71, (S)-6-methyloctanoyl-Dab-Thr-D-Ser-ring(4-10)[Dab-Dab-D-Phe-Thr-Dap-Dab-Thr]] (X1-[Dab]T[dS][Dab][Dab][dF]T[Dap][Dab]T; lactam 4-C)",0.06 µg/mL,≤0.03 µg/mL,≤0.03 µg/mL,≤0.03 µg/mL,0.25 µg/mL,0.5 µg/mL,>64 µg/mL,64 µg/mL,> 500 µg/mL,–,–,–,–,–,–,–,–
"CCCCCCCCC(=O)N[C@@H](CCN)C(=O)N[C@H](C(=O)N[C@@H](CN)C(=O)N[C@H]1CCNC(=O)[C@H]([C@@H](C)O)NC(=O)[C@H](CCN)NC(=O)[C@H](CCN)NC(=O)[C@H](CC(C)C)NC(=O)[C@@H](Cc2ccccc2)NC(=O)[C@H](CCN)NC1=O)[C@@H](C)O [Compound 40, Nonanoyl-Dab-Thr-Dap-ring(4-10)[Dab-Dab-D-Phe-Leu-Dab-Dab-Thr]] (Nonanoyl-[Dab]T[Dap][Dab][Dab][dF]L[Dab][Dab]T; lactam 4-C)",0.06 µg/mL,0.06 µg/mL,0.06 µg/mL,0.06 µg/mL,0.06 µg/mL,0.06 µg/mL,0.06 µg/mL,0.5 µg/mL,158 ± 6.4 µg/mL,–,–,–,–,–,–,–,–
"CCCCCCC(=O)N[C@@H](CN)C(=O)N[C@H](C(=O)N[C@H](CO)C(=O)N[C@H]1CCNC(=O)[C@H]([C@@H](C)O)NC(=O)[C@H](CCN)NC(=O)[C@H](CCN)NC(=O)[C@H]([C@@H](C)O)NC(=O)[C@@H](Cc2ccccc2)NC(=O)[C@H](CCN)NC1=O)[C@@H](C)O [Compound 54, Heptanoyl-Dap-Thr-D-Ser-ring(4-10)[Dab-Dab-D-Phe-Thr-Dab-Dab-Thr]] (Heptanoyl-[Dap]T[dS][Dab][Dab][dF]T[Dab][Dab]T; lactam 4-C)",0.25 µg/mL,0.25 µg/mL,0.03 µg/mL,0.03 µg/mL,0.25 µg/mL,0.5 µg/mL,64 µg/mL,8 µg/mL,> 500 µg/mL,–,–,–,–,–,–,–,–
"CCCCCCCCC(=O)N[C@@H](CCN)C(=O)N[C@H](C(=O)N[C@H](CO)C(=O)N[C@H]1CCNC(=O)[C@H]([C@@H](C)O)NC(=O)[C@H](CCN)NC(=O)[C@H](CCN)NC(=O)[C@H]([C@@H](C)O)NC(=O)[C@@H](Cc2ccccc2)NC(=O)[C@H](CCCN)NC1=O)[C@@H](C)O [Compound 70, Nonanoyl-Dab-Thr-D-Ser-ring(4-10)[Dab-Orn-D-Phe-Thr-Dab-Dab-Thr]] (Nonanoyl-[Dab]T[dS][Dab][Orn][dF]T[Dab][Dab]T; lactam 4-C)",0.25 µg/mL,0.25 µg/mL,0.5 µg/mL,0.5 µg/mL,0.25 µg/mL,0.5 µg/mL,64 µg/mL,8 µg/mL,384 ± 29.5 µg/mL,–,–,–,–,–,–,–,–
"CC[C@H](C)CCCCC(=O)N[C@@H](CCN)C(=O)N[C@H](C(=O)N[C@H](CO)C(=O)N[C@H]1CCNC(=O)[C@H]([C@@H](C)O)NC(=O)[C@H](CCN)NC(=O)[C@H](CCN)NC(=O)[C@H]([C@@H](C)O)NC(=O)[C@@H](Cc2ccccc2)NC(=O)[C@H](CN)NC1=O)[C@@H](C)O [Compound 61, (S)-6-methyloctanoyl-Dab-Thr-D-Ser-ring(4-10)[Dab-Dap-D-Phe-Thr-Dab-Dab-Thr]] (X1-[Dab]T[dS][Dab][Dap][dF]T[Dab][Dab]T; lactam 4-C)",–,–,–,–,–,–,–,–,> 500 µg/mL,0.25 µg/mL,0.25 µg/mL,0.06 µg/mL,0.06 µg/mL,0.25 µg/mL,0.5 µg/mL,64 µg/mL,4 µg/mL
"CC(C)CCCCC(=O)N[C@@H](CCN)C(=O)N[C@H](C(=O)N[C@H](CO)C(=O)N[C@H]1CCNC(=O)[C@H]([C@@H](C)O)NC(=O)[C@H](CCN)NC(=O)[C@H](CCN)NC(=O)[C@H]([C@@H](C)O)NC(=O)[C@@H](Cc2ccc(CS(=O)(=O)O)cc2)NC(=O)[C@H](CCN)NC1=O)[C@@H](C)O [Compound 107, 6-methylheptanoyl-Dab-Thr-D-Ser-ring(4-10)[Dab-Dab-D-Phe(4-CH2SO3H)-Thr-Dab-Dab-Thr]] ({Heptanoyl(6-Me)}-[Dab]T[dS][Dab][Dab][X3]T[Dab][Dab]T; lactam 4-C)",0.06 µg/mL,0.06 µg/mL,0.03 µg/mL,0.03 µg/mL,0.125 µg/mL,0.125 µg/mL,0.25 µg/mL,0.25 µg/mL,> 500 µg/mL,–,–,–,–,–,–,–,–
"CC(C)CCCCC(=O)N[C@@H](CCN)C(=O)N[C@H](C(=O)N[C@H](CO)C(=O)N[C@H]1CCNC(=O)[C@H]([C@@H](C)OCS(=O)(=O)O)NC(=O)[C@H](CCN)NC(=O)[C@H](CCN)NC(=O)[C@H]([C@@H](C)O)NC(=O)[C@@H](Cc2ccccc2)NC(=O)[C@H](CCN)NC1=O)[C@@H](C)O [Compound 106, 6-methylheptanoyl-Dab-Thr-D-Ser-ring(4-10)[Dab-Dab-D-Phe-Thr-Dab-Dab-Thr(CH2SO3H)]] ({Heptanoyl(6-Me)}-[Dab]T[dS][Dab][Dab][dF]T[Dab][Dab]T(Sulfomethyl); lactam 4-C)",0.06 µg/mL,0.06 µg/mL,0.03 µg/mL,0.03 µg/mL,0.125 µg/mL,0.125 µg/mL,0.25 µg/mL,0.25 µg/mL,> 500 µg/mL,–,–,–,–,–,–,–,–
"CCCCCCC(=O)N[C@@H](CCN)C(=O)N[C@H](C(=O)N[C@@H](CCN)C(=O)N[C@H]1CCNC(=O)[C@H]([C@@H](C)O)NC(=O)[C@H](CCN)NC(=O)[C@H](CCN)NC(=O)[C@H]([C@@H](C)O)NC(=O)[C@@H](Cc2ccccc2)NC(=O)[C@H](CCN)NC1=O)[C@@H](C)O [Compound 19, Heptanoyl-Dab-Thr-Dab-ring(4-10)[Dab-Dab-D-Phe-Thr-Dab-Dab-Thr]] (Heptanoyl-[Dab]T[Dab][Dab][Dab][dF]T[Dab][Dab]T; lactam 4-C)",0.5 µg/mL,0.25 µg/mL,0.03 µg/mL,0.03 µg/mL,0.06 µg/mL,0.03 µg/mL,2 µg/mL,2 µg/mL,> 500 µg/mL,–,–,–,–,–,–,–,–
"CC[C@H](C)CCCCC(=O)N[C@@H](CN)C(=O)N[C@H](C(=O)N[C@H](CCN)C(=O)N[C@H]1CCNC(=O)[C@H]([C@@H](C)O)NC(=O)[C@H](CCN)NC(=O)[C@H](CCN)NC(=O)[C@H](CC(C)C)NC(=O)[C@@H](Cc2ccccc2)NC(=O)[C@H](CCN)NC1=O)[C@@H](C)O [Compound 91, (S)-6-methyloctanoyl-Dap-Thr-D-Dab-ring(4-10)[Dab-Dab-D-Phe-Leu-Dab-Dab-Thr]] (X1-[Dap]T[dDab][Dab][Dab][dF]L[Dab][Dab]T; lactam 4-C)",0.03 µg/mL,0.03 µg/mL,0.03 µg/mL,0.03 µg/mL,0.03 µg/mL,0.03 µg/mL,0.5 µg/mL,0.5 µg/mL,126 ± 19.2 µg/mL,–,–,–,–,–,–,–,–
"CC(C)CCCCC(=O)N[C@@H](CCN)C(=O)N[C@H](C(=O)N[C@H](CN)C(=O)N[C@H]1CCNC(=O)[C@H]([C@@H](C)O)NC(=O)[C@H](CCN)NC(=O)[C@H](CCN)NC(=O)[C@H](CC(C)C)NC(=O)[C@@H](Cc2ccccc2)NC(=O)[C@H](CCN)NC1=O)[C@@H](C)O [Compound 32, 6-methylheptanoyl-Dab-Thr-D-Dap-ring(4-10)[Dab-Dab-D-Phe-Leu-Dab-Dab-Thr]] ({Heptanoyl(6-Me)}-[Dab]T[dDap][Dab][Dab][dF]L[Dab][Dab]T; lactam 4-C)",0.03 µg/mL,0.03 µg/mL,0.03 µg/mL,0.03 µg/mL,0.03 µg/mL,0.03 µg/mL,0.03 µg/mL,0.25 µg/mL,325 ± 11.7 µg/mL,–,–,–,–,–,–,–,–
